Results as given in patent publication US10154813B1, “Method and apparatus for patient skin color monitoring and drug efficacy measurement” (priority 2017, dated 2018).

Legend:
[1] = patients, by body surface area; cited from earlier work
[2] = tested on: microvascular endothelium (skin, right anterior thigh) of a peripheral artery disease patient; test: Skin colorimetry (a, b, L) before and after application of “μ” in a peripheral artery disease patient on cilostazol; format: in vivo, human; conditions: 50 mg twice a day; for a dry: baseline (dry)
Description: As stated above, one available quantitative color system is the L*a*b* color space or Hunter L/a/b color space, which can be visualized as a rectangular 3D coordinate system. L indicates lightness, a is the red/green coordinate, and b is the yellow/blue coordinate. L can have a value from 0 (black) to 100 (perfect reflection). The a and b axes have no numerical limits. Coordinate a is positive when red, and negative when green. Positive b is yellow, and negative b is blue. Colors can be described numerically using numerical values for L, a, and b. Differences between two colors can be quantified for each of the individual L/a/b values (ΔL, Δa, Δb). Overall differences between two colors can be derived numerically based on the three Δ values.
μ=drug applied before colorimeter and/or spectrophotometer measurements.
L1, a1, b1=Initial measurement.
L2, a2, b2=Measurement with μ applied. L2−L1=ΔLμ(L2 minus L1)=change in lightness and darkness(+=lighter,−=darker) a2−a1=Δaμ(a2 minus a1)=change in red and green(+=redder,−=greener) b2−b1=Δbμ(b2 minus b1)=change in yellow and blue(+=yellower,−=bluer)
When the arteries in the lower extremities become blocked and stenosed with various disease manifestations such as diabetes, hypercholesterolemia there is an increased amount of claudication that occurs with the lower extremities with minimal exertion. Using the current methodology described herein the patient can ascertain if the effects of the various antiplatelet and statin medication's i.e. Lipitor, Crestor are affective in improving the blood flow to the lower extremities. By taking baseline measurements in the lower extremities in particular locations in the legs such as the anterior tibial surface of a right or left leg, medication can be then administered to the patient. After the corresponding 5 half-lives or more have past of drug “δ” the procedure above can be implemented and test run to determine the a, b, L after drug “μ” has been applied. This information can then be used by calculating the measurements with the equation as described above the change in the colorimetric and spectrophotometric variables that can be derived. This will then allow for the ability of the patient in the healthcare provider to know which drug provides the maximum increase in cardio vascular flow to the area based on the information of the homeostasis of the microvascular endothelial system. The more a percentage change of equal to or greater than 10%, the better the flow that would be understood to be an improvement of the peripheral circulation of that area. It will also allow for the proper titration of medication of that particular area. If it seems to improve the flow then, the patient and the healthcare provider may decide to increase the dosage of the medication to have a better benefit. This will allow for an objective determination of how well the patient is responding to the medication while minimizing the side effects of the drugs.
With reference to the table below and to FIG. 19, the table and the graph show a patient with known peripheral artery disease diagnosed by angiogram in the right distal common femoral artery who is having their right anterior thigh continuously evaluated at the same location for the a, b, L calculations after they were initially started on 50 mg of cilostazol twice a day from December 2016 until August 2017. The values of the of a, b, L, are calculated after “μ” was applied which is shown in color red.

coronary arteries = conditions: cited from earlier work
skin capillaries = test: Topical wet run solution on skin: capillary dilation / red shift; format: in vivo, human; conditions: applied to skin surface
Description: The inventor's work has identified previously unknown differences in the reactions of healthy and unhealthy individuals to acetylcholine and other vasodilative substances when applied to the skin. […] Additional efficacious wet run solutions include bradykinin, adenosine, vasopressin, nitroglycerin, sildenafil, serotonin, and thrombin.
“Wet runs” can be performed according to the same general protocol described above for dry runs, which are incorporated herein but will not be fully repeated for brevity. The difference is that for wet runs the skin area being measured with the color detector is wetted with a chemical solution (a.k.a. “Wet run solution”). For example, a solution of one or more chemicals (e.g. acetylcholine and/or thrombin) in water, alcohol, petroleum jelly, or saline. The solution can be applied by wiping or covering the area with a wet gauze pad. The solution may be applied once at the beginning of the procedure before the color detector is positioned on the skin, or applied more than once throughout the procedure. Suspensions of effective chemicals (as opposed to solutions), viscous spreadable chemical applications, lipid-carrier compounds, and potentially non-wet applications of effective chemicals are also contemplated.
Wet runs can also be used as a partial substitute for exercise in a clinical setting, such as for patients who are not physically able to perform stress test exercises. The chemical alone provokes the same general types of differential responses as stress test exercise. For example, in a healthy at-rest individual, acetylcholine alone causes skin capillary dilation, which increases blood perfusion and (because blood is red) causes the skin to become more red. In an unhealthy individual, the acetylcholine alone will cause only low, negligible, or even negative red shift. Thus, the differential reactions to application of acetylcholine (for example) can be used to assess vascular health or the effectiveness of medication even without a stress test.

## COc1cccc2c1C(=O)c1c(O)c3c(c(O)c1C2=O)C[C@@](O)(C(=O)CO)C[C@@H]3O[C@H]1C[C@H](N)[C@H](O)[C@H](C)O1 [Adriamycin]
[1]
  cumulative dose associated with an increased risk of cardiomyopathy: above 550 mg/m2

## O=C1CCc2cc(OCCCCc3nnnn3C3CCCCC3)ccc2N1 [Cilostazol, cilostazol]
[2]; 9 months monitoring
  effect on blood flow to the microvascular endothelium (a shift after μ): improved blood flow
[2]; April 2017
  L: 70.42
  b: 16.14
  a dry: 5.14
  a wet after “μ”: 7.33
[2]; August 2017
  L: 65.59
  b: 16.8
  a dry: 5.31
  a wet after “μ”: 10.32
[2]; December 2016
  L: 65.09
  b: 15.65
  a dry: 4.58
  a wet after “μ”: 5.35
[2]; February 2017
  L: 71.68
  b: 14.67
  a dry: 4.70
  a wet after “μ”: 7.33
[2]; January 2017
  L: 58.14
  b: 10.51
  a dry: 4.62
  a wet after “μ”: 6.33
[2]; July 2017
  L: 71.63
  b: 14.62
  a dry: 5.15
  a wet after “μ”: 8.95
[2]; June 2017
  L: 66.06
  b: 17.75
  a dry: 5.35
  a wet after “μ”: 9.40
[2]; March 2017
  L: 70.24
  b: 15.42
  a dry: 5.12
  a wet after “μ”: 7.62
[2]; May 2017
  L: 69.91
  b: 15.64
  a dry: 5.02
  a wet after “μ”: 8.06

## CC(=O)OCC[N+](C)(C)C [acetylcholine]
Coronary arteries; eight arteries with advanced stenosis
  temporary occlusion: temporary occlusion in five

## Nc1ncnc2c1ncn2[C@@H]1O[C@H](CO)[C@@H](O)[C@H]1O [adenosine]
Skin capillaries
  efficacy as wet run solution: efficacious

## O=[N+]([O-])OCC(CO[N+](=O)[O-])O[N+](=O)[O-] [nitroglycerin]
Skin capillaries
  efficacy as wet run solution: efficacious
Coronary arteries; all vessels (normal and diseased)
  vessel response: All vessels dilated

## NCCc1c[nH]c2ccc(O)cc12 [serotonin]
Skin capillaries
  efficacy as wet run solution: efficacious

## CCCc1nn(C)c2c(=O)[nH]c(-c3cc(S(=O)(=O)N4CCN(C)CC4)ccc3OCC)nc12 [sildenafil]
Skin capillaries
  efficacy as wet run solution: efficacious

## NC(=O)CC[C@@H]1NC(=O)[C@H](Cc2ccccc2)NC(=O)[C@H](Cc2ccc(O)cc2)NC(=O)[C@@H](N)CSSC[C@@H](C(=O)N2CCC[C@H]2C(=O)N[C@@H](CCCN=C(N)N)C(=O)NCC(N)=O)NC(=O)[C@H](CC(N)=O)NC1=O [vasopressin]
Skin capillaries
  efficacy as wet run solution: efficacious

## thrombin
Skin capillaries
  efficacy as wet run solution: efficacious
